One experiment has as its target Protease (Human immunodeficiency virus 1, UniProt Q9YQ12). Nature of the experiment: Binding affinity to HIV1 protease by ITC analysis. In general terms: Isothermal titration calorimetry measures the heat released or taken up as one component is titrated into another.
The nature of experiment [1]: Inhibition of pepsin (unknown origin). On the set-up: species or system Homo sapiens.
A further experiment deals with Cathepsin D (Homo sapiens, UniProt P07339). The experiment is described as follows: Inhibition of cathepsin D (unknown origin).

The text below walks through data of ChEMBL document CHEMBL2434968, “The thermodynamic basis for the use of lipophilic efficiency (LipE) in enthalpic optimizations” (Bioorg Med Chem Lett, 2013).

Sequence of Protease (Q9YQ12 whole entry): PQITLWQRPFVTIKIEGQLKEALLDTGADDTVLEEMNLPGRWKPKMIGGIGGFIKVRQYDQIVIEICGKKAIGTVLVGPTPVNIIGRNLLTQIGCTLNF
Sequence of Cathepsin D (P07339 65-162 limits assumed): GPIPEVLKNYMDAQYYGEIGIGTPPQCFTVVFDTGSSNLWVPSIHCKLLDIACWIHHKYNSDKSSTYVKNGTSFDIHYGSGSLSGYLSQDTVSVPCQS
Sequence of Cathepsin D (P07339 169-412 limits assumed): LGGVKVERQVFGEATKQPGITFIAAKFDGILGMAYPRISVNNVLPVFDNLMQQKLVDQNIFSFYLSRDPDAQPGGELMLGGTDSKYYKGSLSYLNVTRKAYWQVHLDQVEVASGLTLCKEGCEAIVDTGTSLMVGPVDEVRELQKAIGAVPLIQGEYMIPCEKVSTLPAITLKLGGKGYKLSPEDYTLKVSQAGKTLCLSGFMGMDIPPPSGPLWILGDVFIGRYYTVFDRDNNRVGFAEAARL

In the case of `CSC[C@H](NC(=O)COc1cccc2cnccc12)C(=O)N[C@@H](Cc1ccccc1)[C@H](O)C(=O)N1CSC(C)(C)C1C(=O)N[C@H]1c2ccccc2C[C@H]1O` (stereo partly drawn), binding at Protease was put at a Kd of 0.013 nM.
The same measure, in the same setting: the value for `CC1(C)SCN(C(=O)[C@@H](O)[C@H](Cc2ccccc2)NC(=O)[C@H](CS(C)(=O)=O)NC(=O)COc2cccc3cnccc23)C1C(=O)N[C@H]1c2ccccc2C[C@H]1O` (stereo partly drawn) was 0.021 nM.
Take `CC1(C)SCN(C(=O)[C@@H](O)[C@H](Cc2ccccc2)NC(=O)COc2ccccc2)C1C(=O)N[C@H]1c2ccccc2C[C@H]1O` (stereo partly drawn): the Kd (usually the equilibrium constant for the complex coming apart) was determined as 850 nM in experiment [1], 142 nM at Cathepsin D and 11.8 nM at Protease.
On to `Cc1cccc(C)c1OCC(=O)N[C@@H](Cc1ccccc1)[C@H](O)C(=O)N1CSC(C)(C)C1C(=O)N[C@H]1c2ccccc2C[C@H]1O` (stereo partly drawn), for which the Kd in experiment [1] was 345 nM; at Cathepsin D it was 22 nM; on Protease it was 0.14 nM.
